Results taken from patent publication US12698141B2, “Methods for extracting and encapsulating phenolics from food waste, related compositions, and related articles” (BOARD OF TRUSTEES OF MICHIGAN STATE UNIVERSITY, priority 2019, dated 2026).

Assay: Release of quercetin in PBS solution from electrospun PLLA scaffold (spectrophotometer)
Assay type: physicochemical
Conditions: all three samples (quercetin:PLLA 1:16, 1:8, 1:4)
Protocol: Materials and Methods: For fabrication of the scaffolds, an electrospinning apparatus consisting of a high voltage power supply (PCM series, Spellman, NY, USA) was used for charging the polymer solution, a grounded aluminum roto-translating drum (4 mm outer diameter and 13 cm in length) was used for collecting fibers, and a syringe pump (KDS-100, KD Scientific, Holliston, MA, USA) was used for controlling feed flow rate. Rotation was at 750 rpm and translation velocity at 1000 mm/min. The fluid was pushed out from the syringe with a flow rate of 1.1 mL/h, throughout a 0.25 mm diameter needle with a potential difference of 17 kV. All the samples were obtained using about 1.5 mL of initial solution. The polymer solution was prepared with Poly (L-lactide), PLLA, in 1,1,1,3,3,3-Hexafluoro-2-propanol (HFP) 20% (w/v). Three different volumes of quercetin dihydrate in ethanol (5.5 mg/mL) were added to obtain three different quercetin/polymer ratio: 1:4, 1:8, 1:16. […] The mechanical properties of the scaffolds were measured using uniaxial tensile test. The release of quercetin in PBS solution from the scaffold was measured using spectrophotometer at different times up to 75 days. Growth inhibition activity of quercetin against Escherichia coli and Saccharomyces cerevisiae was also assessed.

amount of quercetin released (after 75 days of incubation at 4° C.): 50% | amount of quercetin released (after 75 days of incubation at 20° C.): 50%
SMILES: O=c1c(O)c(-c2ccc(O)c(O)c2)oc2cc(O)cc(O)c12 [quercetin]
